Values quoted from earlier work, collected in patent US20080138412A1, “Sustained release alfuzosin hydrochl formulation and method for their production” (priority 2006, published 2008).
Structures can show the parent of a compound that is named as a salt.

half-life: about 9 hours
Compound: COc1cc2nc(N(C)CCCNC(=O)C3CCCO3)nc(N)c2cc1OC (stereo not shown) [Alfuzosin hydrochloride]
